# According to paper PMC11137182, “Selective and brain-penetrant ACSS2 inhibitors target breast cancer brain metastatic cells” (Frontiers in Pharmacology, 2024):
# Experiments:
# hACSS1 = target: T1, hACSS1 (Homo sapiens, UniProt Q9NUB1); assay: SPR binding to immobilized hACSS1; settings: single concentration 25μM injection
# T1 construct: purchased MyBioSource (www.mybiosource.com)
# T1 sequence (Q9NUB1 38-689): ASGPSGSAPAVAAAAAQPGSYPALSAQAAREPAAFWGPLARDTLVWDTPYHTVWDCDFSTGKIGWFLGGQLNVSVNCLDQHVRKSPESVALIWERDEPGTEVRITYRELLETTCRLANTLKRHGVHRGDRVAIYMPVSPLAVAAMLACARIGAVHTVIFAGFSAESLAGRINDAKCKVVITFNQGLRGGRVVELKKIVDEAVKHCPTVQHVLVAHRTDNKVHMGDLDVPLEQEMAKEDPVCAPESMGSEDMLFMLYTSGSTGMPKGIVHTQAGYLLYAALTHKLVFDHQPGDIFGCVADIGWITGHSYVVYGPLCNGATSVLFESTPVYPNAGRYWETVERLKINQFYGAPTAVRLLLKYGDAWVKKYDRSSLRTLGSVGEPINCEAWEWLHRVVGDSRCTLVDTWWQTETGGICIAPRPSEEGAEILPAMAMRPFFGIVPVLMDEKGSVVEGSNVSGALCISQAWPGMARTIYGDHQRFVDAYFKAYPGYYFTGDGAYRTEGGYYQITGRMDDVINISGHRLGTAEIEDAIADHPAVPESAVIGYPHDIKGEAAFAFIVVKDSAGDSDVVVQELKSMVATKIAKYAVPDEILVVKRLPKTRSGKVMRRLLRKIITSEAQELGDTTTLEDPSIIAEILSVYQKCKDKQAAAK
# Description: All binding assays were performed on a ProteOn XPR36 SPR Protein Interaction Array System (Bio-Rad Laboratories, Hercules, CA, United States). The instrument temperature was set at 25°C for all kinetic analyses. ProteOn GLH sensor chips were preconditioned with two short pulses each (10 s) of 50 mM NaOH, 100 mM HCl, and 0.5% sodium […]. Then, the system was equilibrated with running buffer (1x PBS pH 7.4, 3% DMSO, and 0.005% polysorbate 20). The surface of a GLH sensor chip was activated with a 1:100 dilution of a 1:1 mixture of 1-ethyl-3-(3-dimethylaminopropyl) carbodiimide hydrochloride (0.2 M) and sulfo-N-hydroxysuccinimide (0.05 M). Immediately after chip activation, the human ACSS2 or hACSS1 proteins were prepared at a concentration of 10 μg/mL in 10 mM sodium acetate, pH 5.5, and injected across ligand flow channels for 5 min at a flow rate of 30 μL/min. Then, after unreacted protein had been washed out, excess active ester groups on the sensor surface were capped by a 5 min injection of 1M ethanolamine HCl (pH 8.0) at a flow rate of 5 μL/min. […] Data were analyzed using the ProteOn Manager Software version 3.0 (Bio-Rad). […]
# [1] = system: MDA-MB-231BR tumor bearing brain slices; assay: Ex vivo tumor-brain slice model; set-up: species or system Nu/Nu mice; settings: MDA-MB-231BR brain slices, 100 μM, 6 days, bioluminescence
# Description: Ex vivo brain slice tumor model was performed as previously described ([Ciraku et al., 2021]). Briefly, Nu/Nu athymic 4–6 week old mice Charles River Laboratories (Wilmington, MA, United States) were immobilized using the Just for Mice Stereotaxic Frame (Harvard Apparatus, Holliston, MA, United States) and injected intracranially with 5uL of 20,000 cells/uL solution of luciferase tagged MDA-MB-231BR or 4T1BR cells. Tumor growth was monitored via bioluminescence imaging on the IVIS system (Perkin Elmer, Waltman, MA, United States). Organotypic hippocampal cultures were prepared as described previously ([Ciraku et al., 2021]). Briefly, adult mice (4–6 weeks) or mice after 12 days following intracranial injection were decapitated and their brains rapidly removed into ice-cold (4°C) sucrose-aCSF composed of the following (in mM): 280 sucrose, 5 KCl, 2 MgCl2, 1 CaCl2, 20 glucose, 10 HEPES, 5 Na^+-ascorbate, 3 thiourea, 2 Na^+-pyruvate; pH = 7.3. […] Tumor growth was monitored via bioluminescence imaging on the IVIS 200 system (Perkin Elmer), and results were analyzed using Living Image software (Caliper Life Sciences, Waltham, MA, United StatesUnited States). […] Tissues were incubated at 37 ℃ , 5% CO2 for 4 h, and absorbance at 490 nm was measured with a Tecan Spark Microplate reader.
structure (smiles),measurement,setting,value
N[C@H](C(=O)N1CCCC(c2ccccc2)(c2ccccc2)C1)C1CC1 [AD-8007],binding to hACSS1 (specificity),hACSS1,specifically bind ACSS2 and not the mitochondrial isoform hACSS1
same,tumor growth of preformed tumors ex vivo,[1],significantly reduced tumor growth of preformed tumors
